# Test results as given in US20190224186A1, “TREATMENT OF MULTIPLE SCLEROSIS WITH CHS-131” (InteKrin Therapeutics, Inc., priority 2016, published 2019).
# Several values for one entry are separate records, joined by “and”; a condition that tells them apart may be missing. Equal entries are not always repeated.
# Legend:
# [1] = tested on: MS patients in the relapsing and remitting course of the disease (RRMS); experiment: Calculated dose response curve: expected new gadolinium CE T1-weighted lesions over six months; design: species or system human
# Procedure: To test the hypothesis that women will benefit from higher doses of CHS-131 and identify efficacious doses of CHS-131 for women, a dose response curve was calculated. The dose response curve was calculated to determine the efficacy of various daily dose of CHS-131 for males and females. The dose-response curve is assumed to have the following form: RDose=α exp β−Dose+γ Parameter β was determined from negative binomial regression using the observed total new GAD CE lesions 6 Months and numeric dosage of 0, 1, 3 mg. Parameters α and γ were determined using least-squares method on the observed mean total new GAD CE lesions 6 Months. Based on the clinical trial data, we calculated the expected number of new gadolinium CE T1-weighted lesions that would be seen over six months on doses of CHS-131 ranging from 1 to 10 mg per day. Table 7 below provides a tabular report of the percent reduction compared to the number of lesions at a 0 mg dose.
# [2] = tested on: MS patients in the relapsing and remitting course of the disease (RRMS); experiment: Phase 2 trial: change in cortical (neocortical) volume by MRI, SIENAX-MTP3; format: in vivo, human; details: 3 mg
# Procedure: Upon completion of the six-month trial period described in Example 1 the change in neocortical volume and whole brain volume was evaluated. Table 9 below reports the change in neocortical volumes at 3 months and at 6 months, compared to baseline, for the 3 mg and placebo groups. Baseline volume was normalized for head size. Percent change is calculated by […]-multi-time point (MTP3) algorithm. The difference in the mean change in volume calculated to determine the impact treatment with CHS-131.
# [3] = tested on: MS patients in the relapsing and remitting course of the disease (RRMS); experiment: Slope of cortical atrophy at six months as a function of CE lesion number; format: in vivo, human; details: n=70
# Procedure: To evaluate the connection between the reduction in cortical volume loss and CHS-131 treatment, cortical volume was compared to observed CE lesion in the MS patients. […] The slopes of cortical atrophy at six months as a function of CE lesion number at six months was plotted for the placebo group (n=69), the CHS-131 1 mg/day group (n=70), and the CHS-131 3 mg/day group (n=70). For the placebo, 1 mg/day, and 3 mg/day groups the slopes were: −0.040391, −0.019631, and −0.001783, respectively. […] Thus, the reduction in CE lesions as a result of CHS-131 treatment is correlated with a reduction in the loss of cortical volume in MS patients.
smiles,measurement,setting,value
O=S(=O)(Nc1cc(Cl)c(Oc2cnc3ccccc3c2)c(Cl)c1)c1ccc(Cl)cc1Cl [CHS-131],Expected # of Lesions,"[1]; Females, 1 mg",7.14
same,Expected Percent Change from Placebo,"[1]; Females, 1 mg",−25.9%
same,Expected Percent Reduction vs 0 mg dose,"[1]; Females, 1 mg",13.98%
same,Expected # of Lesions,"[1]; Females, 2 mg",6.15
same,Expected Percent Change from Placebo,"[1]; Females, 2 mg",−36.0%
same,Expected Percent Reduction vs 0 mg dose,"[1]; Females, 2 mg",25.90%
same,Expected # of Lesions,"[1]; Females, 3 mg",5.31
same,Expected Percent Change from Placebo,"[1]; Females, 3 mg",−44.7%
same,Expected Percent Reduction vs 0 mg dose,"[1]; Females, 3 mg",36.02%
same,Expected # of Lesions,"[1]; Females, 4 mg",4.59
same,Expected Percent Change from Placebo,"[1]; Females, 4 mg",−52.1%
same,Expected Percent Reduction vs 0 mg dose,"[1]; Females, 4 mg",44.70%
same,Expected # of Lesions,"[1]; Females, 5 mg",3.97
same,Expected Percent Change from Placebo,"[1]; Females, 5 mg",−58.5%
same,Expected Percent Reduction vs 0 mg dose,"[1]; Females, 5 mg",52% and 52.17%
same,Expected # of Lesions,"[1]; Females, 6 mg",3.45
same,Expected Percent Change from Placebo,"[1]; Females, 6 mg",−63.9%
same,Expected Percent Reduction vs 0 mg dose,"[1]; Females, 6 mg",58.43%
same,Expected # of Lesions,"[1]; Females, 7 mg",3.00
same,Expected Percent Change from Placebo,"[1]; Females, 7 mg",−68.5%
same,Expected Percent Reduction vs 0 mg dose,"[1]; Females, 7 mg",63.86%
same,Expected # of Lesions,"[1]; Females, 8 mg",2.62
same,Expected Percent Change from Placebo,"[1]; Females, 8 mg",−72.4%
same,Expected Percent Reduction vs 0 mg dose,"[1]; Females, 8 mg",68.43%
same,Expected # of Lesions,"[1]; Females, 9 mg",2.29
same,Expected Percent Change from Placebo,"[1]; Females, 9 mg",−75.8%
same,Expected Percent Reduction vs 0 mg dose,"[1]; Females, 9 mg",72.41%
same,Expected # of Lesions,"[1]; Females, 10 mg",2.01
same,Expected Percent Change from Placebo,"[1]; Females, 10 mg",−100.0%
same,Expected Percent Reduction vs 0 mg dose,"[1]; Females, 10 mg",75.78%
same,Expected # of Lesions,"[1]; Males & Females, 1 mg",6.79
same,Expected Percent Change from Placebo,"[1]; Males & Females, 1 mg",−31.4%
same,Expected Percent Reduction vs 0 mg dose,"[1]; Males & Females, 1 mg",17.20%
same,Expected # of Lesions,"[1]; Males & Females, 2 mg",5.63
same,Expected Percent Change from Placebo,"[1]; Males & Females, 2 mg",−43.0%
same,Expected Percent Reduction vs 0 mg dose,"[1]; Males & Females, 2 mg",31.34%
same,Expected # of Lesions,"[1]; Males & Females, 3 mg",4.67
same,Expected Percent Change from Placebo,"[1]; Males & Females, 3 mg",−52.6%
same,Expected Percent Reduction vs 0 mg dose,"[1]; Males & Females, 3 mg",43.05%
same,Expected # of Lesions,"[1]; Males & Females, 4 mg",3.89
same,Expected Percent Change from Placebo,"[1]; Males & Females, 4 mg",−60.5%
same,Expected Percent Reduction vs 0 mg dose,"[1]; Males & Females, 4 mg",52.56%
same,Expected # of Lesions,"[1]; Males & Females, 5 mg",3.24
same,Expected Percent Change from Placebo,"[1]; Males & Females, 5 mg",−66.9%
same,Expected Percent Reduction vs 0 mg dose,"[1]; Males & Females, 5 mg",60.49%
same,Expected # of Lesions,"[1]; Males & Females, 6 mg",2.71
same,Expected Percent Change from Placebo,"[1]; Males & Females, 6 mg",−72.3%
same,Expected Percent Reduction vs 0 mg dose,"[1]; Males & Females, 6 mg",66.95%
same,Expected # of Lesions,"[1]; Males & Females, 7 mg",2.27
same,Expected Percent Change from Placebo,"[1]; Males & Females, 7 mg",−76.6%
same,Expected Percent Reduction vs 0 mg dose,"[1]; Males & Females, 7 mg",72.32%
same,Expected # of Lesions,"[1]; Males & Females, 8 mg",1.92
same,Expected Percent Change from Placebo,"[1]; Males & Females, 8 mg",−80.2%
same,Expected Percent Reduction vs 0 mg dose,"[1]; Males & Females, 8 mg",76.59%
same,Expected # of Lesions,"[1]; Males & Females, 9 mg",1.62
same,Expected Percent Change from Placebo,"[1]; Males & Females, 9 mg",−83.2%
same,Expected Percent Reduction vs 0 mg dose,"[1]; Males & Females, 9 mg",80.24%
same,Expected # of Lesions,"[1]; Males & Females, 10 mg",1.38
same,Expected Percent Change from Placebo,"[1]; Males & Females, 10 mg",−100.0%
same,Expected Percent Reduction vs 0 mg dose,"[1]; Males & Females, 10 mg",83.17%
same,Expected # of Lesions,"[1]; Males, 1 mg",6.33
same,Expected Percent Change from Placebo,"[1]; Males, 1 mg",−42.0%
same,Expected Percent Reduction vs 0 mg dose,"[1]; Males, 1 mg",23.73%
same,Expected # of Lesions,"[1]; Males, 2 mg",4.81
same,Expected Percent Change from Placebo,"[1]; Males, 2 mg",−56.1%
same,Expected Percent Reduction vs 0 mg dose,"[1]; Males, 2 mg",42.05%
same,Expected # of Lesions,"[1]; Males, 3 mg",3.64
same,Expected Percent Change from Placebo,"[1]; Males, 3 mg",−67.1%
same,Expected Percent Reduction vs 0 mg dose,"[1]; Males, 3 mg",56% and 56.14%
same,Expected # of Lesions,"[1]; Males, 4 mg",2.73
same,Expected Percent Change from Placebo,"[1]; Males, 4 mg",−75.5%
same,Expected Percent Reduction vs 0 mg dose,"[1]; Males, 4 mg",67.11%
same,Expected # of Lesions,"[1]; Males, 5 mg",2.03
same,Expected Percent Change from Placebo,"[1]; Males, 5 mg",−82.1%
same,Expected Percent Reduction vs 0 mg dose,"[1]; Males, 5 mg",75.54%
same,Expected # of Lesions,"[1]; Males, 6 mg",1.49
same,Expected Percent Change from Placebo,"[1]; Males, 6 mg",−87.1%
same,Expected Percent Reduction vs 0 mg dose,"[1]; Males, 6 mg",82.05%
same,Expected # of Lesions,"[1]; Males, 7 mg",1.07
same,Expected Percent Change from Placebo,"[1]; Males, 7 mg",−91.0%
same,Expected Percent Reduction vs 0 mg dose,"[1]; Males, 7 mg",87.11%
same,Expected # of Lesions,"[1]; Males, 8 mg",0.74
same,Expected Percent Change from Placebo,"[1]; Males, 8 mg",−94.1%
same,Expected Percent Reduction vs 0 mg dose,"[1]; Males, 8 mg",91.08%
same,Expected # of Lesions,"[1]; Males, 9 mg",0.49
same,Expected Percent Change from Placebo,"[1]; Males, 9 mg",−96.4%
same,Expected Percent Reduction vs 0 mg dose,"[1]; Males, 9 mg",94.10%
same,Expected # of Lesions,"[1]; Males, 10 mg",0.30
same,Expected Percent Change from Placebo,"[1]; Males, 10 mg",−100.0%
same,Expected Percent Reduction vs 0 mg dose,"[1]; Males, 10 mg",96.39%
same,reduction in new lesions on the dose response curve in Table 8,"[1]; men, 3 mg per day",67%
same,expected reduction in lesions as compared to placebo (Table 8),"[1]; men, 5 mg per day as printed",67%
same,expected reduction in lesions as compared to placebo (Table 8),"[1]; women, 5 mg per day",56%
same,Cortical volume rate of loss,[2]; 3 Months,−0.297
same,"Reduction in cortical volume loss from CHS-131, as compared to placebo",[2]; 3 Months,42.6%
same,Cortical volume rate of loss,[2]; 6 Months,−0.709
same,"Reduction in cortical volume loss from CHS-131, as compared to placebo",[2]; 6 Months,34.2%
same,"Cortical volume, percent change from baseline to 6 month, Mean",[2]; n=56,−0.709%
same,"Cortical volume, percent change from baseline to 6 month, Median",[2]; n=56,−0.832%
same,"Cortical volume, percent change from baseline to 3 month, Mean",[2]; n=61,−0.297%
same,"Cortical volume, percent change from baseline to 3 month, Median",[2]; n=61,−0.325%
same,slope of cortical atrophy at six months as a function of CE lesion number,[3]; 1 mg/day,−0.01963
same,slope of cortical atrophy at six months as a function of CE lesion number,[3]; 3 mg/day,−0.001783
